This note sets out measurements from US20190177440A1, “COMPOUND OR SALT THEREOF, ANTI-INFLAMMATORY AGENT, ANTI-CANCER AGENT AGAINST LUNG CANCER, METHOD OF PRODUCING COMPOUND OR SALTS THEREOF, METHOD OF TREATING INFLAMMATORY DISEASES AND METHOD OF TREATING LUNG CANCER” (TFK CO., LTD., priority 2016, published 2019).

In assay [1] the test system is TNF-α. The assay can be described thus: TNF-α production in RAW264.7 mouse macrophage cells (Example 6). Type of assay: cell-based. The following applies: final 0.01, 0.1 and 1 ng/mL, no LPSp, FIG. 6. As for the experimental part:
In the same manner as “(1) Preparation of test solution” in Example 3, a solution having a concentration of the purified product of 20,000 ng/mL was prepared, and the solution was serially diluted with a culture solution having the following composition, thereby obtaining a total of three test solutions having a concentration of 2 ng/mL, 0.2 ng/mL, and 0.02 ng/mL. Since the three test solutions are diluted twice when added to the cells, the final concentrations of the purified products are 1 ng/mL, 0.1 ng/mL, and 0.01 ng/mL, respectively.
(§1) The culture medium was added to mouse macrophage cells (RAW264.7, ATCC) to prepare solutions at concentrations of 4×10^5 cells/mL. The solutions were seeded in 96-well flat-bottomed plates in 100 μL portions, i.e., 4×10^4 cells/100 μL/well. After seeding, the cells were incubated at 37° C. in 5% CO2 for 2 hours until they adhered to the bottoms of the wells and extended. Next, 100 μL of the test solution was added to each well. After adding the test solution, the cells were incubated at 37° C. in a 5% CO2 for 24 hours. After the incubation, the culture supernatant of the wells was removed, 150 μl of the above-mentioned culture solution was newly added (hereinafter, this step is referred to as a “culture solution adding step”), and the wells were incubated at 37° C. in a 5% CO2 for 24 hours.
(§2) After incubation, 50 μl of culture supernatant from each well was collected, transferred to each well of new 96-well flat-bottom plates, and absorbance was measured using mouse TNF a assay kit (manufactured by Biolegend) and converted to TNF-α concentrations.

Assay [2] relates to TNF-α. The assay can be described thus: TNF-α production in RAW264.7 cells stimulated with LPSp (Example 7). The format is cell-based, mouse. As to conditions: final 1 ng/mL to 10 μg/mL, then LPSp 100 ng/mL, FIG. 7. Here is the method: as §1, §2
In this example, an experiment was carried out in the same manner as in Example 6 except for the following two points, and 50 μL of culture supernatant of each well was collected and TNF-α concentration was measured. That is, in this example, a total of five test solutions were used as the test solution, in which the concentration of the purified product was 20 μg/mL, 2 μg/mL, 200 ng/mL, 20 ng/mL, and 2 ng/mL. Since the five test solutions are diluted twice when added to the cells, the final concentrations of the purified products are 10 μg/mL, 1 μg/mL, 100 ng/mL, 10 ng/mL, and 1 ng/mL, respectively. In this example, in the culture medium adding step in Example 5, 150 μL of the culture medium containing LPSp at a final concentration of 100 ng/mL was added instead of 150 μL of the culture medium.

The subject of assay [3] is Lewis lung carcinoma: 3LL. The assay can be described thus: Tumor volume in mice bearing Lewis lung carcinoma 3LL (Example 9). Type of assay: in vivo, mouse. As to conditions: Example 9-1: ip 0.5 mg/10 mL/kg once, without CY; days 3, 6, 9; FIG. 9. As for the experimental part:
(1) Preparation of Cancer-Bearing Mice Suspensions of Lewis lung cancer cell lines (Lewis lung carcinoma: 3LL, obtained from JCRB cell banks) were subcutaneously administered to the ventral region of five male C57 BL/6J mice aged 6 weeks so that the cancer cell dose per animal was 2.5×10^5 cells per 200 μL. Two weeks after dosing, tumors were excised from one of the mice and washed on dishes with PBS (−). Next, the washed tumor was made into a finely divided tumor fragment of about 2 mm square, the tumor fragment was transferred to a 50 mL tube, 5 mL of collagenase solution was added, and the mixture was warmed at 37° C. for 10 minutes. Thereafter, the collagenase solution containing the tumor fragments was pipetted into finer tumor fragments, and the collagenase solution containing the tumor fragments was transferred to another 50 mL tube and cooled on ice. After cooling, an additional 5 mL of collagenase solution was added to the collagenase solution containing the tumor fragments, and the same procedure was repeated 5 times until no tumor fragments could be observed. Thereafter, the collagenase solution containing the tumor fragment was filtered through a cell strainer (mesh size: 70 μm, manufactured by BD Corporation), and the filtrate was centrifuged at 1200 rpm for 7 minutes. After centrifugation, the supernatant was removed, 20 ml of […] medium (serum-free) was added to the precipitate, and after suspension by inversion mixing, the precipitate was centrifuged at 1200 rpm for 7 minutes. After centrifugation, the supernatant was removed, and the precipitate was washed twice with PBS (−), and then 10 mL of PBS (−) was added and suspended to prepare a cancer cell suspension. The cancer cell suspension was subcutaneously administered to the ventral portion of the 12 mice so that the cancer cell dose per animal was 2.5×10^5 cells per 200 μL. Fourteen days after dosing, tumors were excised from 10 of the mice and cancer cell suspensions were prepared in the same manner as described above. The cancer cell suspensions were administered intracutaneously into the abdomen of the 108 mice so that the cancer cell dose per animal was 2.5×10^5 cells per 50 μL. After administration, mice were divided into six groups (n=6 in each group) as shown below at the time point when the tumor size of each mouse became about 5 mm in diameter (day 8 after administration). […]
The major and minor diameters of the tumors were measured using calipers on Days 3, 6 and 9 on the day of grouping as day 0, and the tumor volume was calculated based on these measurements. […]

In the case of `CCCCCC/C=C/CCCCCC(=O)OC(CCCCCCCCCCC)CC(=O)NC1C(OCC2OC(OP(=O)(O)O)C(NC(=O)CC(=O)CCCCCCCCCCC)C(OC(=O)CC(O)CCCCCCC)C2O)OC(COC2(C(=O)O)CC(OC3(C(=O)O)CC(OC4OC(C(=O)O)C(OC5OC(CO)C(O)C(O)C5O)C(O)C4O)C(O)C(C(O)CO)O3)C(OC3OC(COP(=O)(O)O)C(OC4OC(CO)C(O)C(O)C4O)C(O)C3O)C(C(O)CO)O2)C(OP(=O)(O)O)C1OC(=O)CC(O)CCCCCCC` (stereo not drawn) [Formula (A1)], the “TNF-α concentration in culture supernatant” value (“TNF-α concentration” for short) in assay [1] and in assay [2] was “Equivalent results were obtained” each time. In addition, the “tumor volume versus saline group” value in assay [3] is recorded as “equivalent results”.

In the case of `CCCCCC/C=C/CCCCCC(=O)OC(CCCCCCCCCCC)CC(=O)NC1C(OCC2OC(OP(=O)(O)O)C(NC(=O)CC(=O)CCCCCCCCCCC)C(OC(=O)CC(O)CCCCCCC)C2O)OC(COC2(C(=O)O)CC(OC3(C(=O)O)CC(OC4OC(C(=O)O)C(OC5OC(CO)C(O)C(O)C5O)C(O)C4O)C(O)C(C(O)CO)O3)C(OC3OC(CO)C(O)C(O)C3O)C(C(O)CO)O2)C(OP(=O)(O)O)C1OC(=O)CC(O)CCCCCCC` (stereo not drawn) [Formula (A2)], the “TNF-α concentration” value in assay [1] and in assay [2] was “Equivalent results were obtained” in each case. For the same compound, the “tumor volume versus saline group” value in assay [3] was “equivalent results”.

`CCCCCC/C=C/CCCCCC(=O)OC(CCCCCCCCCCC)CC(=O)NC1C(OCC2OC(OP(=O)(O)O)C(NC(=O)CC(=O)CCCCCCCCCCC)C(OC(=O)CC(O)CCCCCCC)C2O)OC(COC2(C(=O)O)CC(OC3(C(=O)O)CC(O)C(OC4OC(C(=O)O)C(OC5OC(CO)C(O)C(O)C5O)C(O)C4O)C(C(O)CO)O3)C(OC3OC(COP(=O)(O)O)C(OC4OC(CO)C(O)C(O)C4O)C(O)C3O)C(C(O)CO)O2)C(OP(=O)(O)O)C1OC(=O)CC(O)CCCCCCC` (stereo not drawn) [Formula (B1)]: the “TNF-α concentration” value in assay [1] and in assay [2] was “Equivalent results were obtained” in each case. Also, the “tumor volume versus saline group” value in assay [3] is recorded as “equivalent results”.

As for `CCCCCC/C=C/CCCCCC(=O)OC(CCCCCCCCCCC)CC(=O)NC1C(OCC2OC(OP(=O)(O)O)C(NC(=O)CC(=O)CCCCCCCCCCC)C(OC(=O)CC(O)CCCCCCC)C2O)OC(COC2(C(=O)O)CC(OC3(C(=O)O)CC(O)C(OC4OC(C(=O)O)C(OC5OC(CO)C(O)C(O)C5O)C(O)C4O)C(C(O)CO)O3)C(OC3OC(CO)C(O)C(O)C3O)C(C(O)CO)O2)C(OP(=O)(O)O)C1OC(=O)CC(O)CCCCCCC` (stereo not drawn) [Formula (B2)], the “TNF-α concentration” value in assay [1] and in assay [2] was “Equivalent results were obtained” throughout. For the same compound, the “tumor volume versus saline group” value in assay [3] is on record as “equivalent results”.
